Experimental data as given in ChEMBL document CHEMBL1201862, “PubChem BioAssay data set” (2004).
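Assay format: 96-well plates, 48-hour exposure. The concentration for 50% growth inhibition is given as GI50.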 Active and inactive are the calls of the source. Rule as the data show it: active = GI50 up to about 1.1 µM and inactive = higher.

Columns and labels:
Test in all cases: inhibition of tumour cell growth, NCI panel, 48 h
[1] = test system: SR
[2] = test system: HT-29
[3] = test system: MCF7
[4] = test system: MOLT-4
[5] = test system: SNB-78
[6] = test system: SF-268
[7] = test system: NCI-H23
[8] = test system: HL-60
[9] = test system: A498
[10] = test system: RPMI-8226
[11] = test system: OVCAR-3
[12] = test system: T47D
[13] = test system: OVCAR-4
[14] = test system: BT-549
[15] = test system: MDA-MB-231
[16] = test system: LOX IMVI
[17] = test system: SN12C
[18] = test system: NCI-H460
[19] = test system: OVCAR-8
[20] = test system: NCI/ADR-RES

SMILES	GI50 [1]	GI50 [2]	GI50 [3]	GI50 [4]	GI50 [5]	GI50 [6]	GI50 [7]	GI50 [8]	GI50 [9]	GI50 [10]	GI50 [11]	GI50 [12]	GI50 [13]	GI50 [14]	GI50 [15]	GI50 [16]	GI50 [17]	GI50 [18]	GI50 [19]	GI50 [20]
CN(C)c1ccc(/C=C2\C[N+](C)(C)C/C(=C\c3ccc(N(C)C)cc3)C2=O)cc1	8.09 µM (inactive)	9.18 µM (inactive)	5.4 µM (inactive)	13.6 µM (inactive)	> 49.8 µM (inactive)	19.2 µM (inactive)	17.7 µM (inactive)	2.47 µM (inactive)	> 100 µM (inactive)	3.47 µM (inactive)	5.9 µM (inactive)	16.5 µM (inactive)	21.5 µM (inactive)	10.5 µM (inactive)	17.9 µM (inactive)	14.9 µM (inactive)	20.5 µM (inactive)	13.6 µM (inactive)	23.9 µM (inactive)	–
CC1=CC2=C(OCO1)C(=O)c1ccccc1C2=O	7.82 µM (inactive)	7.4 µM (inactive)	–	6.84 µM (inactive)	33.1 µM (inactive)	7.5 µM (inactive)	3.27 µM (inactive)	3.95 µM (inactive)	14.5 µM (inactive)	4.52 µM (inactive)	5.4 µM (inactive)	2.43 µM (inactive)	3.73 µM (inactive)	–	4.13 µM (inactive)	1.02 µM (active)	5.68 µM (inactive)	7.11 µM (inactive)	8.87 µM (inactive)	3.31 µM (inactive)
C=C1C(=O)C23C(O)CC4C(C)(C)CCC(O)C4(C)C2CC(OC(C)=O)C1[C@H]3O (stereo partly drawn)	1.18 µM (inactive)	0.351 µM (active)	–	1.28 µM (inactive)	0.925 µM (active)	4.49 µM (inactive)	2.44 µM (inactive)	1.26 µM (inactive)	15.8 µM (inactive)	0.869 µM (active)	6.18 µM (inactive)	–	–	–	3.27 µM (inactive)	0.188 µM (active)	3.15 µM (inactive)	4.25 µM (inactive)	1.22 µM (inactive)	15.3 µM (inactive)
Nc1n[nH]c(N)n1 [GUANAZOLE]	3300 µM (inactive)	5060 µM (inactive)	3400 µM (inactive)	3170 µM (inactive)	5250 µM (inactive)	5740 µM (inactive)	5300 µM (inactive)	1420 µM (inactive)	5470 µM (inactive)	4670 µM (inactive)	> 10000 µM (inactive)	> 9160 µM (inactive)	> 9120 µM (inactive)	> 6490 µM (inactive)	> 10000 µM (inactive)	2960 µM (inactive)	4930 µM (inactive)	3270 µM (inactive)	3400 µM (inactive)	2580 µM (inactive)
